From ChEMBL document CHEMBL1156514, “Chemical genetics define the roles of p38alpha and p38beta in acute and chronic inflammation” (J Biol Chem, 2007)
Activity calls are given as the source filed them. The calls are words filed in the database; no cut-off is given here.

Assays:
Mus musculus [1] = assay: Inhibition of collagen antibody-induced arthritis in p38beta T106M mutant expressing C57BL/6 mouse at 3 mg/kg, po administered daily once 24 hrs after LPS challenge; type: functional, organism-based; design: dose 3 mg/kg
[2] = target: Mitogen-activated protein kinase 14 (Homo sapiens, UniProt Q16539); assay: Inhibition of wild type p38alpha
Sequence of Mitogen-activated protein kinase 14 (Homo sapiens, UniProt Q16539) (Q16539 whole entry): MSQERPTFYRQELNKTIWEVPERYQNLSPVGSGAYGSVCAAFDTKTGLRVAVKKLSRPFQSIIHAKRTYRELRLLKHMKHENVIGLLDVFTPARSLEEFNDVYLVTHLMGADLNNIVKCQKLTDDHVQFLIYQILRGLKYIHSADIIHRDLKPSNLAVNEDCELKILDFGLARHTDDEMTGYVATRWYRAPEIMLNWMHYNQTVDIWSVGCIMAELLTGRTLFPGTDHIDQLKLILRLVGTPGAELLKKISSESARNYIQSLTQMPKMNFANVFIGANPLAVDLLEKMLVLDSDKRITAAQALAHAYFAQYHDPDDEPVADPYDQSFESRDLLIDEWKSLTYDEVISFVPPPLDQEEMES

Mus musculus [3] = assay: Inhibition of collagen antibody-induced arthritis in wild type C57BL/6 mouse at 3 mg/kg, po administered daily once 24 hrs after LPS challenge; type: functional, organism-based; design: dose 3 mg/kg
[4] = Inhibition of LPS-stimulated TNFalpha production in p38alpha expressing mouse peritoneal exudates cells by ELISA; type: functional
[5] = Inhibition of LPS-stimulated TNFalpha production in p38beta T106M mutant expressing mouse peritoneal exudates cells by ELISA; type: functional
[6] = Inhibition of LPS-stimulated TNFalpha production in p38alpha T106M mutant expressing mouse peritoneal exudates cells by ELISA; type: functional
Mus musculus [7] = assay: Inhibition of collagen antibody-induced arthritis in p38alpha T106M mutant expressing C57BL/6 mouse at 3 mg/kg, po administered daily once 24 hrs after LPS challenge; type: functional, organism-based; design: dose 3 mg/kg
[8] = target: Mitogen-activated protein kinase 11 (Homo sapiens, UniProt Q15759, T106M); assay: Inhibition of p38beta T106M mutant
Sequence of Mitogen-activated protein kinase 11 (Homo sapiens, UniProt Q15759, T106M) (Q15759 whole entry T106M): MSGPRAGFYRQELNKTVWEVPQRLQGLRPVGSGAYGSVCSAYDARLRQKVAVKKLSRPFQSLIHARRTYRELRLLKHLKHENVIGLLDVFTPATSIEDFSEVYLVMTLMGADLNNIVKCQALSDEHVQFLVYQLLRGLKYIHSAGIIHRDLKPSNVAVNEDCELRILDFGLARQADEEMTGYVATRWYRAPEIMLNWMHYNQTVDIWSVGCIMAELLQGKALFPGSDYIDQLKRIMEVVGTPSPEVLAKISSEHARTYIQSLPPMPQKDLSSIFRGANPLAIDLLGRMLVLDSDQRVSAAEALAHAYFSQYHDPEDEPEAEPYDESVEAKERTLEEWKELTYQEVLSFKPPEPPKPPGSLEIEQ

[9] = Inhibition of LPS-stimulated TNFalpha production in p38beta deficient mouse peritoneal exudates cells by ELISA; type: functional
[10] = target: Mitogen-activated protein kinase 11 (Homo sapiens, UniProt Q15759); assay: Inhibition of wild type p38beta
Sequence of Mitogen-activated protein kinase 11 (Homo sapiens, UniProt Q15759) (Q15759 whole entry): as the sequence (Q15759 whole entry T106M) above, with M106T counted along it

[11] = target: Mitogen-activated protein kinase 14 (Homo sapiens, UniProt Q16539, T106M); assay: Inhibition of p38alpha T106M mutant
Sequence of Mitogen-activated protein kinase 14 (Homo sapiens, UniProt Q16539, T106M) (Q16539 2-360 T106M limits assumed): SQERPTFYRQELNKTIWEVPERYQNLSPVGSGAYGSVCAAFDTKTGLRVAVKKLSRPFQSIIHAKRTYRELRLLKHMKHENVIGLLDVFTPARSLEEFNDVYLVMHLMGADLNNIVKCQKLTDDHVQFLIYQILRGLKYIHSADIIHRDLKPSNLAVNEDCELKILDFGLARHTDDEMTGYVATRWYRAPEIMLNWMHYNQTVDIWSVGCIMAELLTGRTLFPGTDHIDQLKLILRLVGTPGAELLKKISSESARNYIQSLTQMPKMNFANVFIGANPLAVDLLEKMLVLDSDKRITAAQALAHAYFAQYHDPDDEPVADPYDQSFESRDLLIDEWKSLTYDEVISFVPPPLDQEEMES

Mus musculus [12] = assay: Inhibition of LPS-stimulated TNFalpha production in p38beta deficient C57BL/6 mouse plasma at 3 mg/kg, po after 90 mins by ELISA; type: functional, organism-based; design: dose 3 mg/kg
Mus musculus [13] = assay: Inhibition of LPS-stimulated TNFalpha production in wild type C57BL/6 mouse plasma at 3 mg/kg, po after 90 mins by ELISA; type: functional, organism-based; design: dose 3 mg/kg
Mus musculus [14] = assay: Inhibition of LPS-stimulated TNFalpha production in p38alpha T106M mutant expressing C57BL/6 mouse plasma at 3 mg/kg, po after 90 mins by ELISA; type: functional, organism-based; design: dose 3 mg/kg
Mus musculus [15] = assay: Inhibition of LPS-stimulated TNFalpha production in p38beta T106M mutant expressing C57BL/6 mouse plasma at 3 mg/kg, po after 90 mins by ELISA; type: functional, organism-based; design: dose 3 mg/kg

| SMILES | Activity (Mus musculus [1]) | IC50 [2] [nM] | Activity (Mus musculus [3]) | IC50 [4] [nM] | IC50 [5] [nM] | IC50 [6] [nM] | Activity (Mus musculus [7]) | IC50 [8] [nM] | IC50 [9] [nM] | IC50 [10] [nM] | IC50 [11] [nM] | Activity (Mus musculus [12]) | Activity (Mus musculus [13]) | Activity (Mus musculus [14]) | Activity (Mus musculus [15]) |
| --- | --- | --- | --- | --- | --- | --- | --- | --- | --- | --- | --- | --- | --- | --- | --- |
| CC(C)(C)N1CCC(c2cc(-c3ccc(F)cc3F)c3ccc(=O)n(-c4c(Cl)cccc4Cl)c3c2)CC1 | Active | 0.08 | Active | 3.5 | 8.3 | > 250 | inactive | 260 | 6.8 | 0.25 | 28 |  |  |  |  |
| C[C@H](Nc1cc(-c2c(-c3cccc(C(F)(F)F)c3)nc(C3CCNCC3)n2C)ccn1)c1ccccc1 |  |  |  |  |  |  |  |  |  |  |  | Active | Active | inactive | Active |
